This note sets out measurements from US12390472B2 (SUZHOU SINOVENT PHARMACEUTICALS CO., LTD., priority 2018, dated 2025).

The subject of test [1] is Pfeiffer. The test can be described thus: Methylated lysine of histone-H3 (H3K27Me3) detection by ELISA, Pfeiffer cells. The class given is cell-based, human. To be noted: Homo sapiens, 168 h, 7 days treatment, H3K27Me3 normalized to total histone-3, read-out: IC50 of cell methylation, Pfeiffer. The gist of the method: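 Cells were treated 7 days with compound (4-fold dilutions, 20 uM-0.009 nM), then lysed hypotonically with NaCl adjusted to ~100 mM. Lysate-coated plates were probed by ELISA for H3K27Me3 and total H3 (TMB, A450). Methylation signal was normalised to total H3 before curve fitting.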

In test [2] the target is EZH2 (Y641N) (Homo sapiens (Human), UniProt Q15910, Y641N). The test is described as follows: Test on EZH2 (Y641N) inhibitory activity. The class given is biochemical.
Sequence of EZH2 (Y641N) (Q15910 whole entry Y641N): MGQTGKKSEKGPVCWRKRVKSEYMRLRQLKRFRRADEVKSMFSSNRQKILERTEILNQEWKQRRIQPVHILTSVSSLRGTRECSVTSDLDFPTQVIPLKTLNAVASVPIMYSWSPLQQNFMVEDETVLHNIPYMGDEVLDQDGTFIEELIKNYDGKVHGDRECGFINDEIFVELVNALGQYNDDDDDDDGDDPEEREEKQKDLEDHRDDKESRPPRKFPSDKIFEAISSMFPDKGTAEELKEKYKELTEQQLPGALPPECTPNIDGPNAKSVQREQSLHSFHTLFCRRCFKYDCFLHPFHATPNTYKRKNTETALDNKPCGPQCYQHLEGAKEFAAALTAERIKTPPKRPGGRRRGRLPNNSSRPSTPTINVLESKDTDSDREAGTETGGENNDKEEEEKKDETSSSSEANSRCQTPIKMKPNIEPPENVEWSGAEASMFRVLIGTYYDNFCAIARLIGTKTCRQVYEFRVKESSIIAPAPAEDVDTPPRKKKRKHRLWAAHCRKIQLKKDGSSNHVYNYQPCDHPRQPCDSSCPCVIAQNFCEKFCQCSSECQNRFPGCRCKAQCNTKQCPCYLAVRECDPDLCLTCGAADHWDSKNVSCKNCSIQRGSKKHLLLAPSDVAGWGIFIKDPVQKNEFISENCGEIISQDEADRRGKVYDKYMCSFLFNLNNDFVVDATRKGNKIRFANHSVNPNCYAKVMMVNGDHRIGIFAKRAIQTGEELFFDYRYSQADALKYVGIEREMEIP
Sequence of EZH2 (Y641N) (O75530 whole entry partner): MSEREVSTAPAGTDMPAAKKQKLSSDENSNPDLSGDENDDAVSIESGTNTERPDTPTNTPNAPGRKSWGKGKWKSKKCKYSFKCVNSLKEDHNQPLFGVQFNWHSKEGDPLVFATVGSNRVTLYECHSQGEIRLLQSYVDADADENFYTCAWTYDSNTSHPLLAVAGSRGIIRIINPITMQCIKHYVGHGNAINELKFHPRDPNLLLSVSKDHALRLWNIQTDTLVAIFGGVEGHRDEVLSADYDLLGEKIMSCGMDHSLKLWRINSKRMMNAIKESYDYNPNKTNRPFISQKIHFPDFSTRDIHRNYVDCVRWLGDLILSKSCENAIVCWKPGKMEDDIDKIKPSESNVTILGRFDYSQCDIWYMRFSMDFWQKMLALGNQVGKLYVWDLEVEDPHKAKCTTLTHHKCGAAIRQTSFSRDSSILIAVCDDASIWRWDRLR
Sequence of EZH2 (Y641N) (Q15022 whole entry partner): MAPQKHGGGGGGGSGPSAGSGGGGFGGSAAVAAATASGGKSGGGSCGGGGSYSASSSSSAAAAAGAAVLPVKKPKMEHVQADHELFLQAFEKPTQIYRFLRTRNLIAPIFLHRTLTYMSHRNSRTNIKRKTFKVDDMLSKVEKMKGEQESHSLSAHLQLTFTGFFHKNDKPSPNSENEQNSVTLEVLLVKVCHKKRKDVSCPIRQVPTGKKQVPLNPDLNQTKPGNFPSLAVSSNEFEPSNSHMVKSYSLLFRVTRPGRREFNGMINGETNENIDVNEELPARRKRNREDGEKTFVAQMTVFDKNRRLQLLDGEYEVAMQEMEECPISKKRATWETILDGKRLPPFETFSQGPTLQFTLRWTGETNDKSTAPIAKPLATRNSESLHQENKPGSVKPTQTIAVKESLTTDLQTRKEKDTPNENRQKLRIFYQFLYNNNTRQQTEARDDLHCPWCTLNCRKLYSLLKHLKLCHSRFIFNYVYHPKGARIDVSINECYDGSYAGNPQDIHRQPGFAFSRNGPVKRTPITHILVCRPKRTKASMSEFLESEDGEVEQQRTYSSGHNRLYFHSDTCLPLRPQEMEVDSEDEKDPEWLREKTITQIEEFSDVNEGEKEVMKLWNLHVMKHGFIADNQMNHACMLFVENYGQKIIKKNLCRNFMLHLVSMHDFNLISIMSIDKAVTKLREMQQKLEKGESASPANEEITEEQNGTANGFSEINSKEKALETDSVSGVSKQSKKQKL
Procedure: Compounds at different concentrations were dissolved in 100% DMSO and transferred to test plates, and the final concentration of DMSO was 1%. Enzyme solution and substrate SAM solution were prepared with 1-fold reaction buffer (optimized Tris buffer). 5 uL of enzyme solution was added to the test plate and wells only added with 5 uL of reaction buffer were used as negative control wells. After incubation at room temperature for 15 min, the plate was added with 5 uL of substrate solution per well to initiate the reaction, and then incubated at room temperature for 60 min. 5 uL of receptor solution was added and the plate was incubated away from light at room temperature for 60 min. 10 uL of donor solution was added and the plate was incubated away from light at room temperature for 30 min. The endpoint values were read on the Envision and the IC50 was calculated.
Data were fitted by GraphPad Prism 5 software and inhibition rate was calculated according to equation (1) Inh %=(Max−Signal)/(Max−Min)×100 (1)
IC50 was calculated using equation (2) Y=Bottom+(Top−Bottom)/(1+10^((Log IC50−X)×Hill Slope))
Y: inhibition rate; X: concentration of the compound

The term IC50 denotes the point on the concentration scale where inhibition reaches its midpoint.

With `CCN(c1cc(O[C@H]2C[C@H](N3C[C@@H](C)O[C@@H](C)C3)C2)cc(C(=O)NCc2c(C)cc(C)[nH]c2=O)c1C)C1CCC(F)(F)CC1` [Example 45, 3-((4,4-difluorocyclohexyl)(ethyl)amino)-N-((4,6-dimethyl-2-oxo-1,2-dihydropyridin-3-yl)methyl)-5-(trans-3-(cis-2,6-dimethylmorpholinyl)cyclobutoxy)-2-methylbenzamide], the IC50 in test [1] was 50 to 500 nM; in test [2] it was 5.2 nM.
